Test results from patent US5089623A, “Certain imidate insecticides” (Imperial Chemical Industries Plc, priority 1990, dated 1992).

Experiments:
Format in all cases: in vivo
[1] = test system: Housefly [Musca domestica]; assay: Housefly insecticidal test (HF); conditions: per 25 female houseflies, 48 hours
[2] = test system: Maize weevil [Sitophilus Zeamais (Motschulsky)]; assay: Maize weevil test (MW); conditions: adult weevils, treated corn seeds, 48 hours, percent in solution
Procedure, shortened: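 Adult weevils (10) were placed with four corn seeds that had been dipped 2-3 s in compound dissolved in 50:50 acetone:water, then dried, and held at about 25° C. Mortality was scored at 48 h. LC50 was taken from dosage-mortality curves and expressed as percent compound in solution, from a 0.01% top concentration.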

[3] = test system: Aster Leafhopper [Macrosteles fascifrens (Stal)]; assay: Aster leafhopper test (LH); conditions: adults/nymphs, 48 hours, percent in solution
[4] = test system: Tobacco Budworm [Heliothis virescens (Fabricius)] eggs; assay: Tobacco budworm egg test (TBW-E); conditions: percent in solution
[5] = test system: Cabbage Looper [Trichoplusia ni (Hubner)]; assay: Cabbage looper test (CL); conditions: second-instar larvae, 3-5 days, percent in solution

Row | SMILES | LC50 HF [1] | LC50 MW [2] | LC50 LH [3] | LC50 TBW E [4] | LC50 CL [5]
1 | Cc1cc(N=C(OCc2ccc(F)c(Oc3ccc(F)cc3)c2)C(C)C)ccc1Br [Compound 359] | < 100 µg | > 0.01% | 0.05% | 0.023% | > 0.1%
2 | CCc1ccc(N=C(OCc2ccc(F)c(Oc3ccccc3)c2)C(C)C)cc1 [Compound 360] | < 100 µg | > 0.01% | < 0.05% | > 0.1% | 0.006%
3 | CCc1ccc(N=C(OCc2ccc(F)c(Oc3ccc(F)cc3)c2)C(C)C)cc1 [Compound 361] | < 100 µg | > 0.01% | < 0.05% | 0.04% | 0.001%
4 | CSc1cccc(N=C(OCc2ccc(F)c(Oc3ccccc3)c2)C(C)C)c1 [Compound 362] | < 100 µg | > 0.01% | > 0.05% | > 0.1% | > 0.1%
5 | COc1ccc(N=C(OCc2ccc(F)c(Oc3ccc(F)cc3)c2)C(C)C)cc1OC [Compound 363] | < 100 µg | > 0.01% | > 0.05% | > 0.1% | > 0.1%
6 | CC(C)C(=Nc1ccc(Br)c(C(F)(F)F)c1)OCc1ccc(F)c(Oc2ccc(F)cc2)c1 [Compound 364] | < 100 µg | > 0.01% | < 0.05% | 0.025% | 0.00045%
7 | CC(C)C(=Nc1ccc(C(F)(F)F)cc1)OCc1cccc(Oc2ccc(Cl)cc2)c1 [Compound 365] | > 100 µg | > 0.01% | < 0.05% | 0.038% | 0.00025%
8 | CC(C)C(=Nc1ccc2c(c1)OCO2)OCc1ccc(F)c(Oc2ccc(Cl)cc2)c1 [Compound 366] | < 100 µg | > 0.01% | 0.05% | 0.012% | 0.0007%
9 | CC(C)C(=Nc1ccc2c(c1)OCO2)OCc1cccc(Oc2ccc(C(C)(C)C)cc2)c1 [Compound 367] | > 100 µg | > 0.01% | > 0.05% | > 0.1% | < 0.1%
10 | CC(C)C(=Nc1ccc(F)cc1)OCCc1cccc(Oc2ccccc2)c1 [Compound 456] | > 100 µg | > 0.01% | > 0.05% | > 0.05% | 0.017%
11 | CC(C)C(=Nc1ccc2c(c1)OCO2)OCc1cccc(Oc2ccc(Cl)cc2)n1 [Compound 466] | 13 µg | 0.01% | > 0.05% | > 0.1% | 0.0008%
12 | CC(C)C(=Nc1ccc(F)c(Cl)c1)OCc1ccc(OCc2ccccc2)cc1 [Compound 475] | > 100 µg | > 0.01% | > 0.05% | > 0.1% | 0.008%
13 | CC(C)C(=Nc1ccc(F)c(Cl)c1)OCc1cccc(OCc2ccc(F)cc2)c1 [Compound 490] | > 100 µg | > 0.01% | > 0.05% | > 0.1% | 0.0045%
14 | CC(C)C(=Nc1ccc(F)c(Cl)c1)OCc1cccc(Oc2ccc(Br)cc2)n1 [Compound 492] | 15 µg | > 0.01% | > 0.05% | 0.015% | 0.00028%
15 | CC(C)C(=Nc1ccc(F)c(Cl)c1)OCc1cccc(Nc2ccc(F)cc2)c1 [Compound 512] | 35 µg | > 0.01% | > 0.05% | > 0.1% | 0.003%
16 | CC(C)C(=Nc1cccc(C(F)(F)F)c1)OCc1cccc(Nc2ccc(F)cc2)c1 [Compound 513] | 81 µg | > 0.01% | > 0.05% | > 0.1% | 0.007%
17 | CC(C)C(=Nc1ccc(Cl)c(Cl)c1)OCc1cccc(Nc2ccc(F)cc2)c1 [Compound 514] | > 100 µg | > 0.01% | > 0.05% | > 0.1% | 0.008%
18 | CC(C)C(=Nc1ccc2c(c1)OCO2)OCc1cc(Oc2ccc(F)cc2)ccn1 [Compound 515] | 28 µg | > 0.01% | > 0.05% | > 0.1% | 0.0015%
19 | CC(C)C(=Nc1ccc(F)c(Cl)c1)OCc1cc(Oc2ccc(Cl)cc2)ccn1 [Compound 516] | > 100 µg | > 0.01% | > 0.05% | > 0.1% | 0.008%

Row | SMILES | LC50 HF [1] | LC50 MW [2] | LC50 LH [3] | LC50 TBW E [4] | LC50 CL [5]
20 | CC(C)C(=Nc1cccc(C(F)(F)F)c1)OCc1ccnc(Oc2ccc(Cl)cc2)c1 [Compound 517] | 80 µg | > 0.01% | > 0.05% | 0.04% | 0.0008%
21 | CC(C)C(=Nc1cccc(C(F)(F)F)c1)OCc1cccc(Oc2ccc(Cl)cn2)c1 [Compound 518] | > 100 µg | > 0.01% | > 0.05% | > 0.1% | 0.00075%
22 | C#CC(OC(=Nc1cccc(C(F)(F)F)c1)C(C)C)c1cccc(Oc2ccccc2)c1 (centres unmarked) [Compound 519] | 60 µg | > 0.01% | > 0.05% | > 0.1% | 0.0037%
23 | COCc1c(F)c(F)c(COC(=Nc2ccc(F)c(Cl)c2F)C(C)C)c(F)c1F [Compound 522] | 17.5 µg | > 0.01% | 0.05% | > 0.1% | > 0.1%
24 | CCC(=Nc1ccc(F)c(F)c1)OCc1coc(Cc2ccccc2)c1 [Compound 524] | 5.2 µg | > 0.01% | > 0.05% | > 0.1% | > 0.1%
25 | CC(C)(C)C(=Nc1ccc(F)c(F)c1)OCc1coc(Cc2ccccc2)c1 [Compound 525] | > 100 µg | > 0.01% | > 0.05% | > 0.1% | < 0.1%
26 | CC(=Nc1ccc(F)c(F)c1)OCc1coc(Cc2ccccc2)c1 [Compound 526] | 8.3 µg | > 0.01% | > 0.05% | > 0.1% | > 0.01%
27 | CC(C)C(=Nc1ccc(F)c(Cl)c1)OCc1cccc(Oc2ccc(Cl)cn2)c1 [Compound 527] | 47 µg | > 0.01% | > 0.05% | 0.035% | 0.00065%
28 | CC(C)C(=Nc1cccc(C(F)(F)F)c1)OCc1cc(Oc2ccc(F)cc2)ccn1 [Compound 528] | 59.1 µg | > 0.01% | > 0.05% | > 0.1% | 0.0075%
29 | CC(C)C(=Nc1ccc(F)c(Cl)c1)OCc1cc(Oc2ccc(F)cc2)ccn1 [Compound 529] | 27.7 µg | > 0.01% | > 0.05% | > 0.1% | > 0.0025%
30 | CC(C)C(=Nc1ccc2c(c1)OCO2)OCc1cccc(Oc2ccc(Cl)cn2)c1 [Compound 532] | > 100 µg | > 0.01% | > 0.05% | > 0.1% | < 0.1%
31 | C#CC(OC(=Nc1ccc(F)c(Cl)c1)C(C)C)c1cccc(Oc2ccccc2)c1 (centres unmarked) [Compound 533, N-(3-chloro-4-fluorophenyl)-O-[1-(3-phenoxyphenyl)-2-propyn-1-yl]isobutyrimidate] | 60 µg | > 0.01% | > 0.05% | > 0.1% | > 0.1%
32 | CC(C)C(=Nc1ccc(F)c(Cl)c1)OCC#CCOc1ccccc1 [Compound 534] | > 100 µg | > 0.01% | > 0.05% | > 0.1% | < 0.1%
33 | Cc1c(COC(=Nc2ccc(C(C)(C)C)cc2)C(C)C)cccc1-c1ccccc1 [Compound 536] | > 100 µg | > 0.01% | > 0.05% | > 0.1% | < 0.1%
34 | CC(C)C(=Nc1ccc([N+](=O)[O-])cc1)OCc1coc(Cc2ccccc2)c1 [Compound 539] | 22 µg | > 0.01% | > 0.05% | > 0.1% | > 0.1%
35 | CC(C)C(=Nc1ccc2c(c1)OCO2)OCc1ccnc(Oc2ccccc2)c1 [Compound 540] | > 100 µg | > 0.01% | > 0.05% | > 0.1% | < 0.1%
36 | CC(C)C(=Nc1ccc(F)c(Cl)c1)OCc1cccc(Cc2ccccc2)c1 [Compound 541] | < 100 µg | > 0.01% | > 0.05% | > 0.1% | 0.001%
37 | CC(C)C(=Nc1ccc(OC(F)(F)F)cc1)OCc1cccc(Cc2ccccc2)c1 [Compound 542] | > 100 µg | > 0.01% | > 0.05% | > 0.1% | > 0.01%
